# According to PubChem BioAssay AID2060508 (Molecular Pharmacology Branch, DTP, NCI, 2025):
# System: 454973-116-R2-J3-PDC spheroids, viability, % test/control
# Assay: Anticancer human tumor 454973-116-R2-J3-PDC patient-derived pancreatic carcinoma cell line growth inhibition [GQUAD]
# Conditions: spheroids with HUVEC and MSC; for IC50: curve of first compound; for viability, T/C: stronger effect = lower value
# From the text: DNA G-quadruplex Stabilizer Agents in Combinations in Complex Spheroids
# A high-throughput screen of multi-cell type tumor spheroids was designed to identify active combinations of DNA G-quadruplex stabilizer agents and targeted small molecules. Complex spheroids include a stromal component modeled by human endothelial cells (HUVEC) and fibroblasts modeled by human mesenchymal stem cells (MSCs). The concentration ranges selected for each drug and investigational agent were based upon clinically achievable concentrations if the clinical Cmax of the agent was known.
# Compounds. The drugs and investigational agents: pidnarulex (CX-5461; NSC782164), APTO-253 (NSC789042), BRACO-19 (NSC847499), peposertib (NSC802822), ceralasertib (NSC780249), elimusertib (NSC800525), camonsertib (NSC841442), AZD-1390 (NSC803789), olaparib (NSC753686), talazoparib (NSC767125), ART-558 (NSC835418), sotorasib (NSC818433), MRTX-1133 (NSC836407), SN-38 (NSC673596), topotecan (NSC609699), etoposide (NSC141540), doxorubicin (NSC123127), gemcitabine (NSC613327), 5-fluorouracil (NSC19893), paclitaxel (NSC125973), vemurafenib (NSC761431), panobinostat (NSC761190), R-306465 (JNJ-16241199; NSC773264), adavosertib (NSC754352), TP-3654 (NSC805149), carboplatin (NSC241240), KSQ-4279 (NSC840948), and staurosporine (NSC755774) were obtained from the National Cancer Institute (NCI) Developmental Therapeutics Program Chemical Repository (34). The FDA-approved anticancer drug set is available from the NCI Developmental Therapeutics Program. […] The stock solutions were prepared in dimethyl sulfoxide (DMSO, Sigma-Aldrich, St. Louis, MO, cat. D2650) at 800-fold the tested concentration and stored at -70 degrees C prior to their use. All drugs and investigational agents were tested over a range starting from a high concentration at or near the clinical Cmax and decreasing in half-log increments. If the clinical Cmax for an agent had not been determined, the highest concentration tested was 10 microM.
# 2.3 Cell Culture. All cells were maintained in an incubator at 37 degrees C and 5% CO2 with 95% humidity. The PDC lines were cultured according to standard operating procedures established by the NCI PDMR. All PDCs were thawed and cultured in Matrigel-coated flasks prepared with a working solution of 1X Ham's F-12 nutrient mix, without supplementation (Invitrogen, cat. 11765054), 100 U/mL penicillin-streptomycin (Invitrogen, cat. 15140122), and 2.5% Matrigel (Corning Inc., cat. 354248) for the first three passages. The 857933-349-R-J2-PDC line was cultured in 6C/Colon 1B media, which includes advanced DMEM/F-12 (Thermo Fisher Scientific, cat. 12634028), 10 mM HEPES (Thermo Fisher Scientific, cat. 15630080), 1X GlutaMAX supplement (Thermo Fisher Scientific, cat. 35050061), 0.1 mg/mL primocin (InvivoGen, cat. ant-pm-2), 10% defined fetal bovine serum, heat inactivated (HyClone Laboratories Inc., cat. SH30070.03HI), 50% L-WRN conditioned media (ATCC, cat. CRL-3276), 1.25 mM N-Acetyl-L-cysteine (Sigma-Aldrich, cat. A9165), 10 mM nicotinamide (Sigma-Aldrich, cat. N0636), 1X B-27 supplement (Thermo Fisher Scientific, cat. 17504044), 1X N-2 supplement (Thermo Fisher Scientific, cat. 17502048), 10 microM Y-27632 dihydrochloride (Tocris Bioscience, cat. 1254), and 50 ng/mL human EGF recombinant protein (Thermo Fisher Scientific, cat. PHG0311). The 485176-168-R4-J1-PDC line was cultured in Panc media, which includes all 6C/Colon 1B media components plus 100 ng/mL human FGF-10 (Thermo Fisher Scientific, cat. 100-26), 500 nM SB-431542 (Selleckchem, cat. S1067), and gastrin (Tocris, cat. 3006).
# […]
# 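Also: spheroids exposed to compounds for seven days.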
structure (smiles),measurement,setting,value
Nc1ccn(C2OC(CO)C(O)C2(F)F)c(=O)n1 (configuration not stated) + Cc1[nH]c2ccc(F)cc2c1-c1nc2c3cccnc3c3ncccc3c2[nH]1,IC50,second compound 0.0316 µM,< 31.6 nM
same,IC50,second compound 0.1 µM,< 31.6 nM
same,IC50,second compound 0.316 µM,< 31.6 nM
same,IC50,second compound 1 µM,< 31.6 nM
same,IC50,second compound 3.16 µM,< 31.6 nM
same,IC50,second compound 10 µM,< 31.6 nM
same,"viability, T/C","second compound 0.0316 µM, first compound 0.0316 µM",20.1%
same,"viability, T/C","second compound 0.0316 µM, first compound 0.1 µM",13.8%
same,"viability, T/C","second compound 0.0316 µM, first compound 0.316 µM",17.1%
same,"viability, T/C","second compound 0.0316 µM, first compound 1 µM",17.2%
same,"viability, T/C","second compound 0.0316 µM, first compound 3.16 µM",17.2%
same,"viability, T/C","second compound 0.0316 µM, first compound 10 µM",15.5%
same,"viability, T/C","second compound 0.1 µM, first compound 0.0316 µM",19.7%
same,"viability, T/C","second compound 0.1 µM, first compound 0.1 µM",13.9%
same,"viability, T/C","second compound 0.1 µM, first compound 0.316 µM",15.5%
same,"viability, T/C","second compound 0.1 µM, first compound 1 µM",13.7%
same,"viability, T/C","second compound 0.1 µM, first compound 3.16 µM",17.3%
same,"viability, T/C","second compound 0.1 µM, first compound 10 µM",14.8%
same,"viability, T/C","second compound 0.316 µM, first compound 0.0316 µM",15.3%
same,"viability, T/C","second compound 0.316 µM, first compound 0.1 µM",15.8%
same,"viability, T/C","second compound 0.316 µM, first compound 0.316 µM",17.7%
same,"viability, T/C","second compound 0.316 µM, first compound 1 µM",14.5%
same,"viability, T/C","second compound 0.316 µM, first compound 3.16 µM",16.9%
same,"viability, T/C","second compound 0.316 µM, first compound 10 µM",15.8%
same,"viability, T/C","second compound 1 µM, first compound 0.0316 µM",19%
same,"viability, T/C","second compound 1 µM, first compound 0.1 µM",19.2%
same,"viability, T/C","second compound 1 µM, first compound 0.316 µM",16%
same,"viability, T/C","second compound 1 µM, first compound 1 µM",20.1%
same,"viability, T/C","second compound 1 µM, first compound 3.16 µM",14.2%
same,"viability, T/C","second compound 1 µM, first compound 10 µM",17.2%
same,"viability, T/C","second compound 3.16 µM, first compound 0.0316 µM",16.1%
same,"viability, T/C","second compound 3.16 µM, first compound 0.1 µM",15.6%
same,"viability, T/C","second compound 3.16 µM, first compound 0.316 µM",17.8%
same,"viability, T/C","second compound 3.16 µM, first compound 1 µM",17.4%
same,"viability, T/C","second compound 3.16 µM, first compound 3.16 µM",19.1%
same,"viability, T/C","second compound 3.16 µM, first compound 10 µM",16.4%
same,"viability, T/C","second compound 10 µM, first compound 0.0316 µM",17.5%
same,"viability, T/C","second compound 10 µM, first compound 0.1 µM",17.6%
same,"viability, T/C","second compound 10 µM, first compound 0.316 µM",17%
same,"viability, T/C","second compound 10 µM, first compound 1 µM",17%
same,"viability, T/C","second compound 10 µM, first compound 3.16 µM",13.8%
same,"viability, T/C","second compound 10 µM, first compound 10 µM",16.6%
